Common to all, as to format: in vivo
For assay [1], the system named is mice under chronic mild stress. Description: Elevated plus maze test, compound given at the same time as stress. The conditions noted are these: 20, 100 and 500 μg/kg intraperitoneally with stress, 3 week and 1 week groups. The protocol: Mice under established chronic mild stress (hereinafter referred to as “stress”) were used for a depression and anxiety disorder-like model animal. Stress was applied as follows. 7-week-old male ddY strain mice fed in one cage for 4 mice were used and first subjected to forced swimming for 15 minutes. Then, the mice were fed in a sloped cage for 2 days, and then rested in a normal cage for 1 day. Then, the mice were fed in a dirt cage moisturized with 200 mL of water for 1 day and then rested in a normal cage for 1 day. Then, the mice were fed in a rotational cage that rotated at 180 rpm for 1 day, and then rested in a normal cage for 1 day. […] For 0 μg/kg administration examples of controls, a phosphoric acid buffer containing 0.1% DMSO (controls were expressed as “PBS” or “0 μg/kg” in the figure shown below) was administered in an amount of 0.25 mL to each of a stressed example and a non-stressed example. […]
In this test, an anxiety level can be evaluated from the time for being the open arm, and a behavior amount can be evaluated from the number of times of entering the closed arm. From the evaluations, when a mouse has an anxiety symptom (condition), the time for being in the open arm […], and thus, a level of the anxiety symptom (condition) can be evaluated from the length of the time. […]

Assay [2] deals with mice under chronic mild stress. Description: Tail suspension test comparing compound 8 and fluvoxamine after chronic mild stress. The conditions noted are these: Exp. 2 (1 week after stress); compound 8 500 μg/kg, fluvoxamine 1000 μg/kg intraperitoneally once per day. The protocol:
7-week-old male ddY strain mice fed in one cage for 4 mice were first subjected to forced swimming for 15 minutes in the same manner as stress in Example 2 (behavior test of mice under stress) (1) described in the paragraph [0063] in the specification. Then, stress for 1 week using 3 kinds of cages was regarded as 1 cycle, and the stress was applied for 3 cycles (3 weeks) and chronic mild stress (CMS) was applied. The compound 8 and fluvoxamine were administered to mice immediately after stress in Exp. 1, 1 week after stress in Exp. 2, and 2 weeks after stress in Exp. 3, respectively, and tail suspension tests were carried out on the respective test groups. In each test group, the compound 8 was adjusted in concentration so as to have each of the doses of […] and fluvoxamine was adjusted in concentration so as to have a dose of 1000 μg/kg, by dissolving in 0.1% DMSO, and each dose of the compound 8 and fluvoxamine were intraperitoneally injected to mice once per day from the time immediately after stress. Further, to 7-week-old male ddY strain mice fed in one cage for 4 mice without stress, the compound 8 and fluvoxamine were administered to carry out the tail suspension tests in the same manner as the stressed mice. FIG. 31 show the result. A significance test was performed in a Student's t-test (*). […] “DAEE” denotes the compound 8 and “Flu” denotes fluvoxamine.

The test system of another assay is MAP kinase. Description: Phosphorylated MAP kinase amount in cortex of frontal lobe and hippocampus of stressed mice. The conditions noted are these: 24 hours after 3 weeks of stress with 20, 100, 500 μg/kg, at least one administration example. As to the method: After 24 hours from completion of stress for 3 weeks in the same method as described in Example 2, mice administered with the compound 8 in doses of 0, 20, 100 and 500 μg/kg respectively at the same time as stress and non-stressed mice administered with only a phosphoric acid buffer containing 0.1% DMSO were sacrificed and the cortexes of frontal lobes and hippocampi were excised respectively, and thereto were added RIPA buffers in 19 times of an amount of each wet weight.
Then, sonication was performed by an ultrasonic grinder until tissues cannot be seen, centrifuged at 12000 rpm for 15 minutes, and the supernatant was recovered to form a tissue protein extraction solution. The protein concentration of the extraction solution was measured using a BCA Protein Assay Kit (TAKARA BIO INC.), each of extraction solutions containing 3 μg for a MAP kinase and 5 μg for a phosphorylated MAP kinase was added with a ⅓ amount of a sample buffer for electrophoresis at 4 times of a concentration, and a 1/10 amount of 2-mercaptoethanol and thermally treated at 95° C. for 5 minutes and subjected to electrophoresis with a 10% SDS polyacrylic amide gel. […]

Experimental findings from patent US8557864B2, “Agent having neurotrophic factor-like activity” (Nagoya Industrial Science Research Institute, priority 2007, dated 2013) are described below.

SMILES strings stand for the structures.

Regarding `CCCCCCC/C=C/C(=O)OCC` [Compound 8, trans-2-decenoic acid ethyl ester], in assay [1], the “time for being in open arm, stressed vs non-stressed example” value is recorded as “no significant difference”. For the same compound, the “number of times of entering closed arm (behavior amount)” value in assay [1] (vs control (PBS) and stressed vs non-stressed) is reported as “no significant difference”. In addition, the “effect on depressive symptom (immobility time)” value in assay [2] is listed as “had an effect”. In addition, the “phosphorylated MAP kinase amount compared to control (0 μg/kg)” value in the assay with MAP kinase is on record as “significantly increased”.
